“And” between values parts separate entries of the source, which are not always exact repeats. Equal entries are not always repeated.
Assay: xn = mol fraction of the nth substance listed

CCCCN(CCCC)CCCC + CCO
viscosity [mPa·s], 101.33 kPa
Conditions | 298.15 K | 303.15 K | 308.15 K | 313.15 K | 318.15 K | 323.15 K
x1 = 0.0992 | – | 1.26 | – | 1.084 | – | 0.951
x1 = 0.1034 | 1.393 | – | 1.17 | – | 1.011 | –
x1 = 0.1456 | 1.458 | – | 1.225 | – | 1.06 | –
x1 = 0.1561 | – | 1.334 | – | 1.151 | – | 1.015
x1 = 0.1969 | – | 1.357 | – | 1.174 | – | 1.035
x1 = 0.2099 | 1.508 | – | 1.267 | – | 1.094 | –
x1 = 0.2529 | 1.52 | 1.371 | 1.276 | 1.183 | 1.098 | 1.04
x1 = 0.2945 | – | 1.367 | – | 1.18 | – | 1.033
x1 = 0.3036 | 1.52 | – | 1.274 | – | 1.091 | –
x1 = 0.3531 | 1.511 | – | 1.265 | – | 1.078 | –
x1 = 0.3639 | – | 1.349 | – | 1.163 | – | 1.012
x1 = 0.3986 | 1.501 | 1.341 | 1.255 | 1.153 | 1.065 | 1
x1 = 0.4508 | 1.488 | 1.325 | 1.242 | 1.137 | 1.049 | 0.982
x1 = 0.4951 | 1.477 | – | 1.231 | – | 1.036 | –
x1 = 0.503 | – | 1.309 | – | 1.122 | – | 0.967
x1 = 0.5448 | 1.467 | – | 1.221 | – | 1.024 | –
x1 = 0.5537 | – | 1.294 | – | 1.11 | – | 0.954
x1 = 0.601 | 1.458 | – | 1.211 | – | 1.012 | –
x1 = 0.6426 | – | 1.267 | – | 1.09 | – | 0.936
x1 = 0.6648 | 1.448 | – | 1.199 | – | 0.998 | –
x1 = 0.7126 | 1.441 | – | 1.19 | – | 0.988 | –
x1 = 0.7382 | – | 1.249 | – | 1.067 | – | 0.915
x1 = 0.7934 | 1.424 | – | 1.173 | – | 0.967 | –
x1 = 0.8711 | – | 1.207 | – | 1.027 | – | 0.876
x1 = 0.9196 | – | 1.186 | – | 1.012 | – | 0.861
x1 = 0.9232 | 1.391 | – | 1.138 | – | 0.928 | –
x1 = 0.9604 | – | 1.176 | – | 1.002 | – | 0.851

CCCCN(CCCC)CCCC + CO
viscosity [mPa·s], 101.33 kPa
Conditions | 298.15 K | 303.15 K | 308.15 K | 313.15 K | 318.15 K | 323.15 K
x1 = 0.1015 | – | 0.881 | – | 0.778 | – | 0.675
x1 = 0.1093 | 1.013 | – | 0.889 | – | 0.735 | –
x1 = 0.1551 | – | 1.008 | – | 0.896 | – | 0.787
x1 = 0.2027 | 1.21 | – | 1.07 | – | 0.919 | –
x1 = 0.2166 | – | 1.106 | – | 0.994 | – | 0.895
x1 = 0.256 | 1.278 | – | 1.132 | – | 0.992 | –
x1 = 0.2933 | – | 1.177 | – | 1.068 | – | 0.984
x1 = 0.3035 | 1.319 | – | 1.169 | – | 1.036 | –
x1 = 0.3493 | – | 1.208 | – | 1.101 | – | 1.027
x1 = 0.362 | 1.353 | – | 1.197 | – | 1.066 | –
x1 = 0.404 | 1.369 | – | 1.208 | – | 1.073 | –
x1 = 0.4195 | – | 1.228 | – | 1.12 | – | 1.044
x1 = 0.4528 | 1.383 | – | 1.215 | – | 1.07 | –
x1 = 0.4998 | – | 1.235 | – | 1.118 | – | 1.03
x1 = 0.5101 | 1.394 | – | 1.216 | – | 1.054 | –
x1 = 0.5426 | – | 1.235 | – | 1.108 | – | 1.011
x1 = 0.5541 | 1.4 | – | 1.213 | – | 1.036 | –
x1 = 0.604 | 1.404 | – | 1.208 | – | 1.014 | –
x1 = 0.6175 | – | 1.232 | – | 1.093 | – | 0.974
x1 = 0.6459 | – | 1.233 | – | 1.085 | – | 0.961
x1 = 0.6609 | 1.408 | – | 1.2 | – | 0.989 | –
x1 = 0.6925 | 1.409 | – | 1.194 | – | 0.977 | –
x1 = 0.7057 | – | 1.224 | – | 1.069 | – | 0.932
x1 = 0.7264 | 1.409 | – | 1.188 | – | 0.966 | –
x1 = 0.763 | – | 1.217 | – | 1.052 | – | 0.911
x1 = 0.8027 | 1.405 | – | 1.172 | – | 0.95 | –
x1 = 0.8237 | – | 1.205 | – | 1.039 | – | 0.897
x1 = 0.8877 | – | 1.19 | – | 1.022 | – | 0.885
x1 = 0.8925 | 1.395 | – | 1.151 | – | 0.941 | –
x1 = 0.9438 | – | 1.178 | – | 1.011 | – | 0.873

CC(C)(N)CO + O
viscosity
Conditions | 303.15 K | 308.15 K | 313.15 K | 318.15 K | 323.15 K
100 kPa, x1 = 0.01 | – | – | 0.77 mPa·s | – | –
100 kPa, x1 = 0.022 | – | – | 0.93 mPa·s | – | –
100 kPa, x1 = 0.048 | – | – | 1.36 mPa·s | – | –
100 kPa, x1 = 0.12 | – | – | 3.15 mPa·s | – | –
101 kPa, x1 = 0.0105 | 0.88 mPa·s | 0.79 mPa·s | 0.72 mPa·s | 0.65 mPa·s | 0.52 mPa·s
101 kPa, x1 = 0.0539 | 1.8 mPa·s | 1.59 mPa·s | 1.39 mPa·s | 1.23 mPa·s | 1 mPa·s
101 kPa, x1 = 0.0728 | 2.48 mPa·s | 2.1 mPa·s | 1.8 mPa·s | 1.56 mPa·s | 1.29 mPa·s
101 kPa, x1 = 0.1 | 3.54 mPa·s | 2.74 mPa·s | 2.29 mPa·s | 1.96 mPa·s | 1.7 mPa·s and 1.95 mPa·s
101 kPa, x1 = 0.1571 | 6.33 mPa·s | 4.28 mPa·s | 3.11 mPa·s | 2.86 mPa·s | 2.58 mPa·s
101 kPa, x1 = 0.2 | 11.06 mPa·s | – | 6.65 mPa·s | – | 4.14 mPa·s
101 kPa, x1 = 0.2559 | 13.3 mPa·s | 7.93 mPa·s | 5.49 mPa·s | 5.09 mPa·s | 4.51 mPa·s
101 kPa, x1 = 0.3 | 20.33 mPa·s | – | 11.74 mPa·s | – | 7.18 mPa·s
101 kPa, x1 = 0.3532 | 23.78 mPa·s | 16.16 mPa·s | 12.24 mPa·s | 9.26 mPa·s | 7.5 mPa·s
101 kPa, x1 = 0.4 | 32.25 mPa·s | – | 18.35 mPa·s | – | 11.9 mPa·s
101 kPa, x1 = 0.4546 | 41.28 mPa·s | 27.92 mPa·s | 20.29 mPa·s | 15.33 mPa·s | 10.88 mPa·s
101 kPa, x1 = 0.5 | 53.64 mPa·s | – | 25.49 mPa·s | – | 15.29 mPa·s
101 kPa, x1 = 0.5537 | 56.6 mPa·s | 38.93 mPa·s | 28.36 mPa·s | 20.9 mPa·s | 14.59 mPa·s
101 kPa, x1 = 0.6 | 60.63 mPa·s | – | 33.17 mPa·s | – | 16.56 mPa·s
101 kPa, x1 = 0.658 | 71.44 mPa·s | 49.28 mPa·s | 35.14 mPa·s | 25.89 mPa·s | 18.35 mPa·s
101 kPa, x1 = 0.7 | 82.98 mPa·s | – | 43.03 mPa·s | – | 20.8 mPa·s
101 kPa, x1 = 0.7001 | 76.44 mPa·s | 53.22 mPa·s | 37.3 mPa·s | 27.62 mPa·s | 19.8 mPa·s
101 kPa, x1 = 0.8 | 91.29 mPa·s | – | 46.27 mPa·s | – | 22.2 mPa·s
101 kPa, x1 = 0.8108 | 85.3 mPa·s | 57.86 mPa·s | 41.82 mPa·s | 31.42 mPa·s | 22.59 mPa·s
101 kPa, x1 = 0.9 | 96.39 mPa·s | – | 47.42 mPa·s | – | 23.4 mPa·s
101 kPa, x1 = 0.9082 | 88.75 mPa·s | 60 mPa·s | 43 mPa·s | 32.18 mPa·s | 22.98 mPa·s
101.33 kPa, x1 = 0.048 | 1.866 mPa·s | – | 1.405 mPa·s | – | 1.099 mPa·s
101.33 kPa, x1 = 0.08 | 3.053 mPa·s | – | 2.168 mPa·s | – | 1.621 mPa·s

From the CheMixHub viscosity set
